Measurements reported in patent US20050014753A1, “Novel compounds and compositions as protein kinase inhibitors” (IRM LLC, priority 2003, published 2005).

Experiments:
Format in all cases: cell-based
F317L Bcr-abl = biological target: T1, F317L Bcr-abl (Homo sapiens, UniProt P00519, F317L); assay: Antiproliferative effect on Ba/F3 cells expressing mutant Bcr-abl F317L
T1 construct: expressed in transfected cells; host or cells: Ba/F3 (murine pro-B cells); the other entry of the earlier key: BCR (P11274, Breakpoint cluster region protein)
Experimental: (§1) Compounds selectively inhibiting the proliferation of these Bcr-abl transformed cells are tested for anti-proliferative activity on Ba/F3 cells expressing either wild type or the mutant forms of Bcr-abl.
(§2) 32D-p210 cells are plated into 96 well TC plates at a density of 15,000 cells per well. 50 μL of two fold serial dilutions of the test compound (Cmax is 40 μM) are added to each well (ST1571 is included as a positive control). After incubating the cells for 48 hours at 37° C., 5% CO2, 15 μL of MTT (Promega) is added to each well and the cells are incubated for an additional 5 hours. The optical density at 570 nm is quantified spectrophotometrically and IC50 values, the concentration of compound required for 50% inhibition, determined from a dose response curve.
(§3) Compounds of the invention are tested for their antiproliferative effect on Ba/F3 cells expressing either wild type or the mutant forms of Bcr-abl (G250E, E255V, T315I, F317L, M351T) that confers resistance or diminished sensitivity to STI571. The antiproliferative effect of these compounds on the mutant-Bcr-abl expressing cells and on the non transformed cells were tested at 10, 3.3, 1.1 and 0.37 μM as described above (in media lacking IL3). The IC50 values of the compounds lacking toxicity on the untransformed cells were determined from the dose response curves obtained as describe above.

M351T Bcr-abl = biological target: T2, M351T Bcr-abl (Homo sapiens, UniProt P00519, M351T); assay: Antiproliferative effect on Ba/F3 cells expressing mutant Bcr-abl M351T
T2 construct: expressed in transfected cells; host or cells: Ba/F3 (murine pro-B cells); the other entry of the earlier key: BCR (P11274, Breakpoint cluster region protein)
Experimental: as §1, §2, §3

wild-type Bcr-abl = biological target: T3, wild-type Bcr-abl (Homo sapiens, UniProt P00519); assay: Antiproliferative effect on Ba/F3 cells expressing wild type Bcr-abl
T3 construct: expressed in transfected cells; host or cells: Ba/F3 (murine pro-B cells); the other entry of the earlier key: BCR (P11274, Breakpoint cluster region protein)
Experimental: as §1, §2, §3

T3151 Bcr-abl = biological target: T4, T3151 Bcr-abl (Homo sapiens, UniProt P00519, T315I, cells depend on it); assay: Antiproliferative effect on Ba/F3 cells expressing mutant Bcr-abl T315I
T4 construct: fused on or other part: P11274 (Breakpoint cluster region protein)
Experimental: as §1, §2, §3

E255V Bcr-abl = biological target: T5, E255V Bcr-abl (Homo sapiens, UniProt P00519, E255V); assay: Antiproliferative effect on Ba/F3 cells expressing mutant Bcr-abl E255V
T5 construct: expressed in transfected cells; host or cells: Ba/F3 (murine pro-B cells); the other entry of the earlier key: BCR (P11274, Breakpoint cluster region protein)
Experimental: as §1, §2, §3

G250E Bcr-abl = biological target: T6, G250E Bcr-abl (Homo sapiens, UniProt P00519, G250E); assay: Antiproliferative effect on Ba/F3 cells expressing mutant Bcr-abl G250E
T6 construct: expressed in transfected cells; host or cells: Ba/F3 (murine pro-B cells); the other entry of the earlier key: BCR (P11274, Breakpoint cluster region protein)
Experimental: as §1, §2, §3

NC(=O)c1ccc(-c2cc(-c3cc(Nc4ccc(OC(F)(F)F)cc4)ncn3)ccn2)cc1 [Compound 97]
IC50 (F317L Bcr-abl): 4450 nM
IC50 (M351T Bcr-abl): 970 nM
IC50 (wild-type Bcr-abl): 200 nM
IC50 (T3151 Bcr-abl): 5280 nM
IC50 (E255V Bcr-abl): 250 nM
IC50 (G250E Bcr-abl): 4780 nM
